Columns and labels:
[1] = biological target: Tyrosine-protein kinase CSK (Homo sapiens, UniProt P41240); assay: Inhibition of CSK (unknown origin)
Homo sapiens [2] = species: Homo sapiens; assay: Selectivity ratio of IC50 for TEC (unknown origin) to IC50 for BTK (unknown origin)
[3] = biological target: Receptor tyrosine-protein kinase erbB-4 (Homo sapiens, UniProt Q15303); assay: Inhibition of ERBB4 (unknown origin)
[4] = biological target: Tyrosine-protein kinase BTK (Homo sapiens, UniProt Q06187); assay: Inhibition of BTK in human PBMC assessed as reduction in anti-IgM-induced MIP1beta
Homo sapiens [5] = species: Homo sapiens; assay: Selectivity ratio of IC50 for LYNB (unknown origin) to IC50 for BTK (unknown origin)
[6] = biological target: Tyrosine-protein kinase Lyn (Homo sapiens, UniProt P07948); assay: Inhibition of LYNB (unknown origin)
Homo sapiens [7] = species: Homo sapiens; assay: Selectivity ratio of IC50 for SRC (unknown origin) to IC50 for BTK (unknown origin)
[8] = Half life in dog at 2 mg/kg; format: ADME, organism-based, Canis lupus familiaris; details: in vivo
[9] = biological target: Tyrosine-protein kinase Lck (Homo sapiens, UniProt P06239); assay: Inhibition of LCK (unknown origin)
[10] = biological target: Tyrosine-protein kinase Fgr (Homo sapiens, UniProt P09769); assay: Inhibition of FGR (unknown origin)
[11] = Total clearance in dog plasma at 2 mg/kg; format: ADME, organism-based, Canis lupus familiaris
Homo sapiens [12] = species: Homo sapiens; assay: Selectivity ratio of IC50 for PTK6 (unknown origin) to IC50 for BTK (unknown origin)
[13] = Oral bioavailability in dog at 2 mg/kg; format: ADME, organism-based, Canis lupus familiaris; details: in vivo
[14] = biological target: Protein-tyrosine kinase 6 (Homo sapiens, UniProt Q13882); assay: Inhibition of PTK6 (unknown origin)
[15] = Oral bioavailability in rat at 10 mg/kg; format: ADME, organism-based; details: in vivo
Homo sapiens [16] = species: Homo sapiens; assay: Selectivity ratio of IC50 for CSK (unknown origin) to IC50 for BTK (unknown origin)

Sequence of Receptor tyrosine-protein kinase erbB-4 (Q15303 whole entry): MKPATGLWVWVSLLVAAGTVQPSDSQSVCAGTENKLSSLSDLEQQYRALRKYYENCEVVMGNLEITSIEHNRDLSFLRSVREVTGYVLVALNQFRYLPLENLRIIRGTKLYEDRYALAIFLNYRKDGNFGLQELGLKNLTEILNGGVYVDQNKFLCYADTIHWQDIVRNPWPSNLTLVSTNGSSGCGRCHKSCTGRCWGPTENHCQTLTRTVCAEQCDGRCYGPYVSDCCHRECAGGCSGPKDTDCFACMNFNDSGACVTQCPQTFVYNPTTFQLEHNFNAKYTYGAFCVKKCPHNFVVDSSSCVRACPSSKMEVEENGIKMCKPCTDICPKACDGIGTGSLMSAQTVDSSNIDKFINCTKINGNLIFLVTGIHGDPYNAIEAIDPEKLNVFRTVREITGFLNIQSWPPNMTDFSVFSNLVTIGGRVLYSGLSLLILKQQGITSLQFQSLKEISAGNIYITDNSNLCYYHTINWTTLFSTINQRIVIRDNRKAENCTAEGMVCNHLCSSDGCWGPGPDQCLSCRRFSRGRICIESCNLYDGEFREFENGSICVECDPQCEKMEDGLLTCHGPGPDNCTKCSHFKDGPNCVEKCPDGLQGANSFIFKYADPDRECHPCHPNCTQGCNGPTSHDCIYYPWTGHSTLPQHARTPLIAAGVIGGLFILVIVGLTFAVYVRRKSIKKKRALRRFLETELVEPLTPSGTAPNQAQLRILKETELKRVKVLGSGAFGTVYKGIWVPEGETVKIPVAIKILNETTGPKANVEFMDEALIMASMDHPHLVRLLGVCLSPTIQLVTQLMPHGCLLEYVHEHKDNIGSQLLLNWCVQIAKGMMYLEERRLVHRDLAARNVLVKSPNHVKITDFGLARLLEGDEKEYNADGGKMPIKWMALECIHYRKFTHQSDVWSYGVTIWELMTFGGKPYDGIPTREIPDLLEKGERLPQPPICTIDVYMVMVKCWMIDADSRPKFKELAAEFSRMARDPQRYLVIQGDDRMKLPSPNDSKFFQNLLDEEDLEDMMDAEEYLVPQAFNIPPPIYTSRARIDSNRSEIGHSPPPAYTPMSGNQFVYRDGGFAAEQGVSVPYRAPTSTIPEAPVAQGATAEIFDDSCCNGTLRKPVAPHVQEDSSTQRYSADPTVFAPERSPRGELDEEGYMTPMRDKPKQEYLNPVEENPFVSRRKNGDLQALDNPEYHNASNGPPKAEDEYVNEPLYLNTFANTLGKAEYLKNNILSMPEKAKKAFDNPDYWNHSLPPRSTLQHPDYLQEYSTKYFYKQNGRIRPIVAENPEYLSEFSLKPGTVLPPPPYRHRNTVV
Sequence of Protein-tyrosine kinase 6 (Q13882 whole entry): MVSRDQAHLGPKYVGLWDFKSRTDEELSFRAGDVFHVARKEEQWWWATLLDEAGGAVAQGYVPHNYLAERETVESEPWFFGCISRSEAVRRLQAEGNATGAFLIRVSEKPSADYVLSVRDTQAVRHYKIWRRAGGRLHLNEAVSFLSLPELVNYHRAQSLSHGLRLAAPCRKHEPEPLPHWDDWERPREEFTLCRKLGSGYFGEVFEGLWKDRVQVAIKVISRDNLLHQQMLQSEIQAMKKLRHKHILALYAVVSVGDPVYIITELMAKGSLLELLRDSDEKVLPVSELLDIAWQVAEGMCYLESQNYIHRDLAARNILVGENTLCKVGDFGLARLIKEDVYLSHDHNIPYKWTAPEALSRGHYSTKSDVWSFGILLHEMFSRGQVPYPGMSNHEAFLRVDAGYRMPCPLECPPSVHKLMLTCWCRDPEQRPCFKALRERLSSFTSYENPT
Sequence of Tyrosine-protein kinase Fgr (P09769 whole entry): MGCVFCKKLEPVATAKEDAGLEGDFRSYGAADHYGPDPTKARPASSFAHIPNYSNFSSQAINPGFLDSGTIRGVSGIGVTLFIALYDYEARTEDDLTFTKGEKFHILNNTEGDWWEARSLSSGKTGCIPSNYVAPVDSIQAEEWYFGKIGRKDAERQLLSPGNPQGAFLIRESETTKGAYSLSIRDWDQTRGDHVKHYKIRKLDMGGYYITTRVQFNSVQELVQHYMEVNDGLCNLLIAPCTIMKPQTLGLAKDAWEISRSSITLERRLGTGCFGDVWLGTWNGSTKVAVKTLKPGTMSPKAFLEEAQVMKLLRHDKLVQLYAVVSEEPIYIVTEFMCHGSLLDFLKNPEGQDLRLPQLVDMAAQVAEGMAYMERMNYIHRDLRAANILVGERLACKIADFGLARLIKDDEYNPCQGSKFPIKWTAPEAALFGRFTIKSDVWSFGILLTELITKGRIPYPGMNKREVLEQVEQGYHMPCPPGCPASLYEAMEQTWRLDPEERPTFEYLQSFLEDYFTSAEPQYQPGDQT
Sequence of Tyrosine-protein kinase Lck (P06239 whole entry): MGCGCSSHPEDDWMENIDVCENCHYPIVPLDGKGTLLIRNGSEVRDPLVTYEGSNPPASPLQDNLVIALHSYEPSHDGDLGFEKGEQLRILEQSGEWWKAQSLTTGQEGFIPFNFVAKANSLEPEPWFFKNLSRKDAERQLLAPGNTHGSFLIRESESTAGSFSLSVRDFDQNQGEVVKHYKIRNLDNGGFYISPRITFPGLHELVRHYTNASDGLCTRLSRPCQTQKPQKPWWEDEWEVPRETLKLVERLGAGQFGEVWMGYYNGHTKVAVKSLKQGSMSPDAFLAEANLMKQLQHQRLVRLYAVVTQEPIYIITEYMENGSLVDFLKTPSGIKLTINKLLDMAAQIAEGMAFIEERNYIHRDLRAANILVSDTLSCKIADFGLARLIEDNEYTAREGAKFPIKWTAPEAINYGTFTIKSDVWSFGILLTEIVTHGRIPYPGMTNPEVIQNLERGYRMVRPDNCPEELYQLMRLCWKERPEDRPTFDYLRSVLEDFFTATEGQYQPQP
Sequence of Tyrosine-protein kinase Lyn (P07948 whole entry): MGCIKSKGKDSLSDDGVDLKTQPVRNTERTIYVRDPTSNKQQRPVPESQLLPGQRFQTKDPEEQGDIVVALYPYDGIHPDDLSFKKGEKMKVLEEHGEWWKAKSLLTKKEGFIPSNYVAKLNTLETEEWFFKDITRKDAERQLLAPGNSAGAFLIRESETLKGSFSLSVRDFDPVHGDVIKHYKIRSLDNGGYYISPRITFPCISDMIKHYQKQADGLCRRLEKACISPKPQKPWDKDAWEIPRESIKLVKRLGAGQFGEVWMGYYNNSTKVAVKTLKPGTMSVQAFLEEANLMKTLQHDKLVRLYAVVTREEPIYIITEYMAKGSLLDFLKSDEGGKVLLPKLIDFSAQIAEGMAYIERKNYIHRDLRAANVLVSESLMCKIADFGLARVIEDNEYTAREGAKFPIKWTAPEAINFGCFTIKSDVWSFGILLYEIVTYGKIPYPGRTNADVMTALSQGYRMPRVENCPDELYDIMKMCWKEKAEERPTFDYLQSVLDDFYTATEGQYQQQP
Sequence of Tyrosine-protein kinase BTK (Q06187 whole entry): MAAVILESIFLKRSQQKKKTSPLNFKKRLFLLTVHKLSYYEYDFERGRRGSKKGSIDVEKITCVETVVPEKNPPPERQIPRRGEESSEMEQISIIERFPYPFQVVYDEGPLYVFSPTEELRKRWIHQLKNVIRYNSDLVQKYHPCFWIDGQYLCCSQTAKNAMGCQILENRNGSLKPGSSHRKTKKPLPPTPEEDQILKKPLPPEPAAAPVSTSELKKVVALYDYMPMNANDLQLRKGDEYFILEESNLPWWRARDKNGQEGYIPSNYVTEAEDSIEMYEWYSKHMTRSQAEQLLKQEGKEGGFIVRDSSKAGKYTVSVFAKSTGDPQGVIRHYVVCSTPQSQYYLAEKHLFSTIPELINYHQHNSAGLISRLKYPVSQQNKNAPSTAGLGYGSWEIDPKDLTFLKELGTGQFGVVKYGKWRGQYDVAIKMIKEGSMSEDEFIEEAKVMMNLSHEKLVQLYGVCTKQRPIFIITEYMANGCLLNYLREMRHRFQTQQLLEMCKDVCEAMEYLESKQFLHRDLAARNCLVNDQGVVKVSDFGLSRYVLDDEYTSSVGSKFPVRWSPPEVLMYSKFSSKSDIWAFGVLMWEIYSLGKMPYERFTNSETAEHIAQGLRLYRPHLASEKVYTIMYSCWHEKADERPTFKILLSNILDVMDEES

- IC50 [1]: 2150 nM
- Ratio IC50 (Homo sapiens [2]): 973
- IC50 [3]: 514 nM
- IC50 [4]: 26 nM
- Ratio IC50 (Homo sapiens [5]): 2380
- IC50 [6]: 1050 nM
- Ratio IC50 (Homo sapiens [7]): 1160
- half-life [8]: 234 min
- IC50 [9]: 100 nM
- IC50 [10]: 268 nM
- clearance [11]: 4.8 mL/min/kg
- Ratio IC50 (Homo sapiens [12]): 393
- bioavailability [13]: 89%
- IC50 [14]: 173 nM
- bioavailability [15]: 87%
- Ratio IC50 (Homo sapiens [16]): 4880
Structure (SMILES): CC(C)C(=O)N1CCO[C@@H](c2nc(-c3ccc(C(=O)Nc4cc(C(F)(F)F)ccn4)cc3F)c3c(N)nccn23)C1
